From paper PMC9721424, “Novel N-methylsulfonyl-indole derivatives: biological activity and COX-2/5-LOX inhibitory effect with improved gastro protective profile and reduced cardio vascular risks” (Journal of Enzyme Inhibition and Medicinal Chemistry, 2022)
Marks after values point to notes of the source that are not given here.

Columns and labels:
[1] = test system: Escherichia coli (E. coli) (ATCC 25922); assay: Disc diffusion antimicrobial screening, E. coli; format: cell-based; conditions: for antibacterial activity against E. coli: 100 µg/disc
Procedure: (§1) All compounds were screened for their antimicrobial activity at the Microbiology and Immunology Department, Faculty of Pharmacy, Beni-Suef University. The antimicrobial activity screening was carried out using the disc diffusion method, as described earlier, with some adjustments.
(§2) For each indicator microbe, a solution of half McFarland turbidity was prepared in sterile saline, followed by surface streaking of the strains on Mueller-Hinton agar with a sterile cotton swab. Then, sterile filter paper discs (5 mm diameter) preloaded with 100 µg of each compound were applied to the surface of the pre-inoculated plates. Then, the plates were chilled at 4 °C for 100 min before being incubated overnight at the proper temperature for microbial growth. Finally, the diameter of the inhibition zones around each disc was measured to evaluate the antimicrobial activity of the compounds. Ciprofloxacin was used as a standard antibacterial agent at a concentration of 20 µg/disc. Furthermore, DMSO-loaded discs were used as a negative control.

[2] = Dissolution of DPPH samples in DMSO/methanol; format: physicochemical; conditions: DPPH sample preparation, methanol: DMSO 9:1 v/v
Procedure: (§3) Preparation of samples was occurred at the following concentrations: Samples 3a, 4a, 5b, 5d and 5e at final concentrations of 0.5 mg/ml in methanol: DMSO 9:1 v/v. Samples 4b and 4d at final concentrations 0.025 mg/ml in methanol: DMSO 9:1 v/v, sample 5a at final concentrations 0.25 mg/ml in methanol: DMSO 9:1 v/v, Sample 4c, 5c and 4e at final concentrations 0.05 mg/ml in methanol: DMSO 9:1 v/v, sample 3b at final concentration 0.75 mg/ml methanol: DMSO 9:1 v/v. A stock solution of 100 µM concentration of Trolox, a standard used in this experiment, was prepared in methanol from which seven concentrations were prepared, including 50, 40, 30, 20, 15, 10 and 5 µM.

[3] = test system: stomach; assay: Histopathological examination of stomach; format: in vivo, rats; conditions: rats, H&E stain
Procedure: In brief, the stomachs of each animal group’s rat were fixed in 10% neutral buffered formalin for 48 h. The sections were then dehydrated, cleared, fixed in paraffin, sectioned ([…]), and stained with H&E stain.

[4] = test system: heart function biomarkers (LDH, CK-MB, and troponin); assay: Cardiac function biomarkers in rat serum; format: in vivo, rats; conditions: 50 mg/kg/day p.o. for 2 weeks, mean ± SEM
Procedure: (§4) Eighteen rats were divided into three groups at random (6 animals in each group). The first group was given a vehicle and served as normal control. […] Ketamine (100 mg/kg) was used to anaesthetise the animals on the 15th day. Blood samples were obtained from the retro orbital, allowed to clot, centrifuged at 1000 g for 15 min, and utilised to examine heart function biomarkers (LDH, CK-MB, and troponin). The abdomen of each rat was opened, and the heart was extracted and washed in ice-cold physiological saline before being harnessed for histological investigation.

[5] = test system: heart; assay: Histopathological examination of the heart; format: in vivo; conditions: rats, two weeks administration, H&E stain
Procedure: as §4

[6] = test system: Salmonella enterica (ATCC 14028); assay: Disc diffusion antimicrobial screening, Salmonella enterica; format: cell-based; conditions: 100 µg/disc
Procedure: as §1, §2

[7] = DPPH free radical assay; format: biochemical; conditions: 540 nm, 30 min, relative to Trolox
Procedure: as §3
The DPPH (2,2-diphenyl-1-picryl-hydrazyl-hydrate) free radical assay was carried out according to the method of Boly et al. 2016[39]. Briefly, freshly prepared DPPH reagent (100 µl, 0.1% in methanol) was added to 100 µl of the sample on 96 well plates (n = 6). The reaction was incubated at room temp for 30 min in the dark. After completion of the incubation time, the reduction in DPPH colour intensity was measured at 540 nm. Data obtained was represented as means ± SD, according to the following equation, percentage inhibition = [(Average absorbance of blank – average absorbance of the test)/(Average absorbance of blank)] *100. The results were recorded using a microplate reader, FluoStar Omega.
Microsoft Excel® was used to analyse the obtained results. The IC50 values were calculated using Graph pad Prism 6® by converting the concentrations to their logarithmic value and selecting the non-linear inhibitor regression equation (log (inhibitor) vs. normalised response – variable slope equation). The methods used and the final test report (R-SO7320) were obtained from Nawah Scientific.

| Compound | antibacterial activity against E. coli [1] | zone of inhibition at 100 µg/disc ([1]; Escherichia coli, ATCC25922, read-out: diameters of inhibition zones) [mm] | solubility of sample in DMSO and methanol [2] | stomach histopathology finding [3] | CK-MB [4] | LDH [4] | Troponin I [4] | heart histopathology finding [5] | antibacterial activity against Salmonella enterica [6] | DPPH test results (µM trolox equivalent/ 1mg sample ± SD) [7] |
| --- | --- | --- | --- | --- | --- | --- | --- | --- | --- | --- |
| Cc1ccc(N2C(=O)CSC2=NN=Cc2cn(S(C)(=O)=O)c3ccccc23)cc1 [Compound 5d] | exclusively exhibited bioactivity against E. coli | 8 to 15 | didn’t dissolve in DMSO nor in methanol | minimally disrupted mucous layer | 0.315 ± 0.035^a,b ng/ml | 536 ± 28^a,b U/L | 0.0015 ± 0.0005^b ng/ml | little or no toxic effects on the heart | – | – |
| COc1ccc(NC(=S)N/N=C/c2cn(S(C)(=O)=O)c3ccccc23)cc1 [Compound 4e, (E)-N-(4-Methoxyphenyl)-2{[1-(methylsulfonyl)-1H-indol 3yl]methylene}hydrazinecarbothioamide] | selective antibacterial activity | – | – | partial loss of mucous layer with mild superficial erosions | – | – | – | – | selective antibacterial activity | 161.21 ± 7.98 µM trolox equivalent/ 1mg sample |
